In ChEMBL document CHEMBL2069245 (Bioorg Med Chem Lett, 2012):
≈ marks a conversion by molar mass, not a printed value.

Assays:
Cytochrome P450 1A2 = target: T1, Cytochrome P450 1A2 (Homo sapiens, UniProt P05177)
T1 sequence (P05177 whole entry): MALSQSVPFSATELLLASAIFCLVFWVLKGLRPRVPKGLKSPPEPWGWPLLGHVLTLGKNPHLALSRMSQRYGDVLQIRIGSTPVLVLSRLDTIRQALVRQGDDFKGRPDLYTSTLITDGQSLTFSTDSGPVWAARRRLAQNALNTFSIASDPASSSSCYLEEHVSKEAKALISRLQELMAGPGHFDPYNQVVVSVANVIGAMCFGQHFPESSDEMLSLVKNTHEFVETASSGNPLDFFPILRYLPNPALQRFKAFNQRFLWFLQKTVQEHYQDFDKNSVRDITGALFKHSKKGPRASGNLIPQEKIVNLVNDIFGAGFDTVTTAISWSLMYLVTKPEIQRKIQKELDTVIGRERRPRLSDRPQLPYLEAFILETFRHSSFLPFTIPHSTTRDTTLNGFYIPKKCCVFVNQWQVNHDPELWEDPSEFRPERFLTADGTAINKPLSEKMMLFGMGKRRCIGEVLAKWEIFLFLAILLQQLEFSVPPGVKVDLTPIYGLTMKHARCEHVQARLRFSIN

Cytochrome P450 2D6 = Cytochrome P450 2D6 (Homo sapiens, UniProt P10635)
Cytochrome P450 2D6, sequence (P10635 whole entry): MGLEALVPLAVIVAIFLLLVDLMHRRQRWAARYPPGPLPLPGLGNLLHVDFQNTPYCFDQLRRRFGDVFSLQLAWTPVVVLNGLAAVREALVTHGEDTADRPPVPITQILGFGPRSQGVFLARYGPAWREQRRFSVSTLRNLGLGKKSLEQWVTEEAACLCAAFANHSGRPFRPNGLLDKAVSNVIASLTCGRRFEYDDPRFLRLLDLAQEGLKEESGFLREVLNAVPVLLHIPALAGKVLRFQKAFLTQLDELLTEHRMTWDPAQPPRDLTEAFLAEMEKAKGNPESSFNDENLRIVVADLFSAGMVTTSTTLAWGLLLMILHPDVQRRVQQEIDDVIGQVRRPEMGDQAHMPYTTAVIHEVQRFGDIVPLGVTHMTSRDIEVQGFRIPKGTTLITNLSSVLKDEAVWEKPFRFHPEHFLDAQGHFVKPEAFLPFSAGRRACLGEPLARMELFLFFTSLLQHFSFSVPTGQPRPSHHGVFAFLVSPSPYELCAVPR

Cytochrome P450 3A4 = Cytochrome P450 3A4 (Homo sapiens, UniProt P08684)
Cytochrome P450 3A4, sequence (P08684 whole entry): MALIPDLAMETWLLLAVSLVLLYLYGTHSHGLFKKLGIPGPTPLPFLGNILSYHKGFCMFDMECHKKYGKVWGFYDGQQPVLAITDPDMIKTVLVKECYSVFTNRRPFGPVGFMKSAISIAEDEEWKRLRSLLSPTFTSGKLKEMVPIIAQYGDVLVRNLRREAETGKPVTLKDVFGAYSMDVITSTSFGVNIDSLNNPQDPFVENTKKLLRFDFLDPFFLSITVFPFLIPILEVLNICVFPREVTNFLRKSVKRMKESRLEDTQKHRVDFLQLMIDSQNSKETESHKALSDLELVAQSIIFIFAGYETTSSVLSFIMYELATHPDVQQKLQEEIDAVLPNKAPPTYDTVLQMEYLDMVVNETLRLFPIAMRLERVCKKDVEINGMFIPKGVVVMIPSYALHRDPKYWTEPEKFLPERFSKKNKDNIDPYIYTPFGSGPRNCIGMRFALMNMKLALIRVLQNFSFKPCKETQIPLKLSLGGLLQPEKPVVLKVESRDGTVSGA

[1] = target: T2, Neuropeptide Y receptor type 5 (Mus musculus, UniProt O70342); assay: Displacement of [125I]PYY from mouse NPY Y5 receptor
T2 sequence (O70342 whole entry): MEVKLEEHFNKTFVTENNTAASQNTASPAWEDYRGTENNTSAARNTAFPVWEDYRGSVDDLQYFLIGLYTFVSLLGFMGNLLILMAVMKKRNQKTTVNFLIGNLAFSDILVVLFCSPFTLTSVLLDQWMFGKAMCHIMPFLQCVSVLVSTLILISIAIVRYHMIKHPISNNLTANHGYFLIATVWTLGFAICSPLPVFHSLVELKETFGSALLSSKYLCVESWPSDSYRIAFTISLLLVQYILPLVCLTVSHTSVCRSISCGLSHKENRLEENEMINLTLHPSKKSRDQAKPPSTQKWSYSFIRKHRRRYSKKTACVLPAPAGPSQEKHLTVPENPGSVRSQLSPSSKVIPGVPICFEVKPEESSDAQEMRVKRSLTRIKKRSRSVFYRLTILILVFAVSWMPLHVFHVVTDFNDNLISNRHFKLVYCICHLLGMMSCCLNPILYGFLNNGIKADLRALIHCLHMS

physchem = conditions: 1% DMSO, pH 6.8
Cytochrome P450 2C19 = Cytochrome P450 2C19 (Homo sapiens, UniProt P33261)
Cytochrome P450 2C19, sequence (P33261 whole entry): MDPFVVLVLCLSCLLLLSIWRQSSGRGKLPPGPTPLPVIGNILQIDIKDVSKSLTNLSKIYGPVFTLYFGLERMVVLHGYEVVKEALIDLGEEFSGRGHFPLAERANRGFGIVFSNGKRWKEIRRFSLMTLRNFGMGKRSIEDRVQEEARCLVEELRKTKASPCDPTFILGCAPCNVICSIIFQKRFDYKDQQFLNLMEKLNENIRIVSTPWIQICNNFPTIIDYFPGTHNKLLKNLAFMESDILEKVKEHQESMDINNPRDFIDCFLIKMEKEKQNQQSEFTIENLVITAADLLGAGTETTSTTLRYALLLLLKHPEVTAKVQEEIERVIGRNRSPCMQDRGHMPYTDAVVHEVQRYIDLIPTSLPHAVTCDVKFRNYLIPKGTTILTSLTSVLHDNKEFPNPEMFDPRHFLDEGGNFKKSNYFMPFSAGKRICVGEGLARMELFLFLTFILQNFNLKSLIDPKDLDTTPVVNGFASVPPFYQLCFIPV

Cytochrome P450 2C9 = Cytochrome P450 2C9 (Homo sapiens, UniProt P11712)
Cytochrome P450 2C9, sequence (P11712 whole entry): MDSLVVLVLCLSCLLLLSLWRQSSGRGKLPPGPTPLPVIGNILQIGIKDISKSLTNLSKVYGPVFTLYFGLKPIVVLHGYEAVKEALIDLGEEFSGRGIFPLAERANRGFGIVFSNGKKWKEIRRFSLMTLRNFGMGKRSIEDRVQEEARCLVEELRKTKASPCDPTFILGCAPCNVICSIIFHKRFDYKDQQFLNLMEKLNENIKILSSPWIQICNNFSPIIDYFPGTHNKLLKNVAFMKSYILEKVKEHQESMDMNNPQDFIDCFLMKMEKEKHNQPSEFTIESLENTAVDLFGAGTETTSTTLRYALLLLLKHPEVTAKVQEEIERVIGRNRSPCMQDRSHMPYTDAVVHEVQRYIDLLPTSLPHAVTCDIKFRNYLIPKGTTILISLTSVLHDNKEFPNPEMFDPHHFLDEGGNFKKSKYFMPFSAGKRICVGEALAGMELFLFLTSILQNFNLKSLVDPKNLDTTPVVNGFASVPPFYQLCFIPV

in vitro [2] = conditions: human, liver microsomes
in vitro [3] = conditions: rat, liver microsomes

IC50 (Cytochrome P450 1A2) [µM]	IC50 (Cytochrome P450 2D6) [µM]	IC50 (Cytochrome P450 3A4) [µM]	IC50 [1] [µM]	solubility kinetic (physchem) [µM]	IC50 (Cytochrome P450 2C19) [µM]	IC50 (Cytochrome P450 2C9) [µM]	remaining at 0.5 h (in vitro [2]) [%]	remaining at 0.5 h (in vitro [3]) [%]	SMILES
3.2	> 20	5.7	–	–	–	–	–	–	CCS(=O)(=O)c1ccc2nc(-c3ccc(C)c(-c4ccccc4)c3)[nH]c2c1
–	–	–	0.00046	–	–	–	–	–	CCS(=O)(=O)c1ccc2[nH]c(-c3cccc(-c4ccccc4)c3)nc2c1
2.9	> 20	> 20	4.66	> 50	–	–	–	–	CCCS(=O)(=O)c1ccc2nc(-c3ccccc3)[nH]c2c1
> 20	15	11	4.06	23.6 (≈ 8.88 µg/mL)	> 20	4.5	–	–	CCCS(=O)(=O)c1ccc2[nH]c(-c3ccccc3-c3ccccc3)nc2c1
2.7	> 20	6	0.00043	0.5 (≈ 0.188 µg/mL)	–	–	68.6	57.1	CCCS(=O)(=O)c1ccc2[nH]c(-c3cccc(-c4ccccc4)c3)nc2c1
> 20	15	2.9	–	–	–	–	–	–	CCCS(=O)(=O)c1ccc2nc(-c3ccc(-c4ccccc4)cc3)[nH]c2c1
0.4	> 20	20	–	–	–	–	–	–	CCCS(=O)(=O)c1ccc2nc(-c3cccc(C(F)(F)F)c3)[nH]c2c1
–	–	–	0.0019	–	–	–	–	–	CCCS(=O)(=O)c1ccc2nc(-c3cccc(OC(F)(F)F)c3)[nH]c2c1
1.1	> 20	6.6	0.0027	0.6 (≈ 0.228 µg/mL)	–	–	–	–	CCS(=O)(=O)c1ccc2nc(-c3cccc(-c4ccccc4)c3F)[nH]c2c1
–	–	–	0.00054	–	–	–	–	–	CCS(=O)(=O)c1ccc2[nH]c(-c3cc(-c4ccccc4)ccc3F)nc2c1
3.4	16	5.6	0.00016	0.2 (≈ 0.0761 µg/mL)	–	–	–	–	CCS(=O)(=O)c1ccc2nc(-c3ccc(F)c(-c4ccccc4)c3)[nH]c2c1
3	18	3.8	0.0405	1.5 (≈ 0.595 µg/mL)	–	–	–	–	CCS(=O)(=O)c1ccc2[nH]c(-c3cccc(-c4ccccc4)c3Cl)nc2c1
0.4	15	5	0.0311	0.4 (≈ 0.159 µg/mL)	–	–	–	–	CCS(=O)(=O)c1ccc2nc(-c3cc(-c4ccccc4)ccc3Cl)[nH]c2c1
8.5	18	2.6	0.00016	–	–	–	–	–	CCS(=O)(=O)c1ccc2[nH]c(-c3ccc(Cl)c(-c4ccccc4)c3)nc2c1
7.8	> 20	5.2	0.0218	3.2 (≈ 1.2 µg/mL)	–	–	–	–	CCS(=O)(=O)c1ccc2nc(-c3cccc(-c4ccccc4)c3C)[nH]c2c1
0.4	14	–	0.383	0.5 (≈ 0.188 µg/mL)	–	–	–	–	CCS(=O)(=O)c1ccc2nc(-c3cc(-c4ccccc4)ccc3C)[nH]c2c1
–	–	–	0.0389	–	–	–	–	–	CCS(=O)(=O)c1ccc2[nH]c(-c3cccc(-c4ccccc4)n3)nc2c1
–	–	–	0.00055	–	–	–	–	–	CCS(=O)(=O)c1ccc2nc(-c3cc(-c4ccccc4)ccn3)[nH]c2c1
6.3	> 20	7.8	–	–	–	–	–	–	CCS(=O)(=O)c1ccc2[nH]c(-c3cncc(-c4ccccc4)c3)nc2c1
3.4	> 20	8.7	0.00031	20.3 (≈ 7.38 µg/mL)	–	–	–	–	CCS(=O)(=O)c1ccc2[nH]c(-c3ccnc(-c4ccccc4)c3)nc2c1
> 20	> 20	> 20	–	–	> 20	> 20	88.5	78.6	CCCS(=O)(=O)c1ccc2[nH]c(-c3ccc(=O)n(-c4ccccc4)c3)nc2c1
> 20	> 20	> 20	0.0075	9.4 (≈ 3.83 µg/mL)	–	–	94.2	> 99.9	CC(C)(C)S(=O)(=O)c1ccc2nc(-c3ccc(=O)n(-c4ccccc4)c3)[nH]c2c1
–	–	–	0.0025	–	–	–	–	–	O=c1ccc(-c2nc3ccc(S(=O)(=O)C(F)(F)F)cc3[nH]2)cn1-c1ccccc1
> 20	> 20	> 20	0.00029	7.7 (≈ 3.34 µg/mL)	–	–	94.7	93.6	O=c1ccc(-c2nc3cc(S(=O)(=O)CC(F)(F)F)ccc3[nH]2)cn1-c1ccccc1
> 20	> 20	> 20	0.579	2 (≈ 0.787 µg/mL)	> 20	> 20	–	–	CCCS(=O)(=O)c1ccc2nc(-c3cn(-c4ccccc4)ccc3=O)[nH]c2c1
> 20	> 20	> 20	–	–	> 20	> 20	–	–	CCCS(=O)(=O)c1ccc2[nH]c(-c3cccn(-c4ccccc4)c3=O)nc2c1
